Experimental findings from ChEMBL document CHEMBL5370660, “Design of a Supersoft Topical JAK Inhibitor, Which Is Effective in Human Skin but Rapidly Deactivated in Blood” (J Med Chem, 2023) are described below.

A value given as a limit tells only on which side of the number the result lay.

The nature of data set [1]: Lipophilicity, LogD of compound. The format is physicochemical. The note with it: octanol/water.
The nature of data set [2]: Drug metabolism in rat assessed as excretion of 2-(6-((5-carbamoyl-4-((2-methoxyphenyl)amino)pyridin-2-yl)amino)pyridin-3-yl)acetic acid metabolite by measuring half life. Type of data set: ADME.
A short description of data set [3]: Stability of compound in fresh human skin explant using Franz diffusion cell model assessed as compound concentration in dermis at 3 % administered topically preincubated overnight followed by fresh media replacement in receiver fluid without compound and subsequently stimulated with IL-4/IL-13 measured after 40 hrs by LC-MS/MS analysis. The note with it: topical or ocular, read-out: Ct. Type of data set: ADME, tissue-based, Skin of body.

The target of data set [4] is T1, Eukaryotic translation initiation factor 2-alpha kinase 3 (Homo sapiens, UniProt Q9NZJ5).
T1 sequence (Q9NZJ5 whole entry): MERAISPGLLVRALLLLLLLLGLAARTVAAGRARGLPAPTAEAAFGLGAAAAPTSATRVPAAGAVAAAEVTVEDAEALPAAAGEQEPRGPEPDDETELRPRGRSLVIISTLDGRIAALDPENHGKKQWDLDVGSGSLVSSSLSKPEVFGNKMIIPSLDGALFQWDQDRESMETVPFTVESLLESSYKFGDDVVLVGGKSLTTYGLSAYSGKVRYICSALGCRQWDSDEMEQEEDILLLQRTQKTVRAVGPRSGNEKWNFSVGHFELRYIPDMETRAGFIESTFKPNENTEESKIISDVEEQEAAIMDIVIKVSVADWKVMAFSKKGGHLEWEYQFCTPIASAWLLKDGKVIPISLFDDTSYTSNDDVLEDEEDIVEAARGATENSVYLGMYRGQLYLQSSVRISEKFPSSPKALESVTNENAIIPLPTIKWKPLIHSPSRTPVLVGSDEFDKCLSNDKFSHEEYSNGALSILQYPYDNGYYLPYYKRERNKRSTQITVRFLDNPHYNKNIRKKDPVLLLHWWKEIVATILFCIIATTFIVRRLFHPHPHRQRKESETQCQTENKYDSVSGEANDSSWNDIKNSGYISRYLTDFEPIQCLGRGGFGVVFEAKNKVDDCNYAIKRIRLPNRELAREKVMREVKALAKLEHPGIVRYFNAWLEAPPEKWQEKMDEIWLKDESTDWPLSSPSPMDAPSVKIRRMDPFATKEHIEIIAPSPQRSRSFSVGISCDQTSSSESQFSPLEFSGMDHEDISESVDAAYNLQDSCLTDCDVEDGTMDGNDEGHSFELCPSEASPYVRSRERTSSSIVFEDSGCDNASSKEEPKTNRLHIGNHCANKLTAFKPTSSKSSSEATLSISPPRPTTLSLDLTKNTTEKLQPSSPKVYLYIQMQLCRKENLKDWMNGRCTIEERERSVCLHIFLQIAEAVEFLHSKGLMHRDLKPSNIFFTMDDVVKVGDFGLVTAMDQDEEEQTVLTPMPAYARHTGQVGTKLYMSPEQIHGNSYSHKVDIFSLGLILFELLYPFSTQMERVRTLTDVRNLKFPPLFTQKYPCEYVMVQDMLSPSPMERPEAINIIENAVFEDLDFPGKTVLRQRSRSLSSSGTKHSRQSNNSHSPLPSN
Put plainly: Inhibition of EIF2AK3 (unknown origin).

Data set [5] is described as follows: Metabolic stability in human skin S9 fraction measured upto 120 mins by LC-MS analysis. Type of data set: ADME, subcellular.

Consider `COC[C@@H](C)OC(=O)Cc1ccc(Nc2cc(Nc3ccccc3OC)c(C(N)=O)cn2)nc1`, for which the logD in data set [1] is 3.3. Moreover, the t1/2 in data set [2] was < 20 min. Besides, in data set [3], the concentration at 40 h, 3 % amounted to 59 µM. The IC50 in data set [4] is < 100 nM. Also, the half-life in data set [5] came out at 42 min.

A word on the logD: it is lipophilicity at a set pH, counting ionised and neutral species. A higher logD goes with a more lipophilic compound. One may read the IC50 as the concentration needed to halve the response being measured. A higher IC50 goes with weaker potency in that assay. Broadly, the half-life is how long it takes for the measured level to halve. The low end stands for fast loss, the high end for slow loss.
